From patent US20070202116A1, “Treatment of micro-organism infection” (priority 2001, published 2007)
Where two headings read alike, the source gives them in different places.

Legend:
[1] = tested on: EMRSA strains; test: MIC of vancomycin or flucloxacillin with and without Aurograb (Table 3a); type: cell-based, S. aureus; conditions: Staphylococcus aureus
Procedure: (§1) Strains of MRSA were grown overnight in nutrient broth and diluted to give an inoculum of 1×10^3 cells per mL. […] Cultures were incubated for a further 2 days. The minimum growth-inhibitory concentration (MIC) is defined as the […] concentration of antibiotic at which no bacterial growth occurs and is determined by spectrophotometric evaluation of the lack of turbidity (growth) in culture. MICs were determined in the presence of exogenous Aurograb or in the presence of Aurograb formulation buffer (negative control).
The experiments were also performed using flucloxacillin instead of vancomycin to investigate how the efficacy of penicillin-type […] was affected by Aurograb.

[2] = tested on: MRSA strains (VISA and parent EMRSA-15); test: MIC of vancomycin in the presence of Aurograb (Table 3); type: cell-based, S. aureus; conditions: Staphylococcus aureus
Procedure: as §1

`CN[C@H](CC(C)C)C(=O)N[C@H]1C(=O)N[C@@H](CC(N)=O)C(=O)N[C@H]2C(=O)N[C@H]3C(=O)N[C@H](C(=O)N[C@H](C(=O)O)c4cc(O)cc(O)c4-c4cc3ccc4O)[C@H](O)c3ccc(c(Cl)c3)Oc3cc2cc(c3O[C@@H]2O[C@H](CO)[C@@H](O)[C@H](O)[C@H]2O[C@H]2C[C@](C)(N)[C@H](O)[C@H](C)O2)Oc2ccc(cc2Cl)[C@H]1O` [Vancomycin, vancomycin] gave an MIC ([1]; read-out: MIC to vancomycin + 100 μg/ml Aurograb, EMRSA strain 1, + 100 μg/ml Aurograb) of 0.03 µg/mL, an MIC ([1]; read-out: MIC to vancomycin + 100 μg/ml Aurograb, EMRSA strain 2, + 100 μg/ml Aurograb) of 0.03 µg/mL and an MIC ([1]; read-out: MIC to vancomycin + 100 μg/ml Aurograb, EMRSA strain 3, + 100 μg/ml Aurograb) of 0.03 µg/mL. For the same compound, the MIC ([1]; read-out: MIC to vancomycin + 100 μg/ml Aurograb, EMRSA strain 4, + 100 μg/ml Aurograb) was 0.03 µg/mL, the MIC ([1]; read-out: MIC to vancomycin + 100 μg/ml Aurograb, EMRSA strain 5, + 100 μg/ml Aurograb) was 0.03 µg/mL and the MIC ([1]; read-out: MIC to vancomycin + 100 μg/ml Aurograb, EMRSA strain 6, + 100 μg/ml Aurograb) was 0.0125 µg/mL. The MIC ([1]; read-out: MIC to vancomycin + 100 μg/ml Aurograb, EMRSA strain 7, + 100 μg/ml Aurograb) was 0.03 µg/mL, the MIC ([1]; read-out: MIC to vancomycin + 100 μg/ml Aurograb, EMRSA strain 8, + 100 μg/ml Aurograb) was 0.0125 µg/mL and the MIC ([1]; read-out: MIC to vancomycin + 100 μg/ml Aurograb, EMRSA strain 9, + 100 μg/ml Aurograb) was 0.0125 µg/mL. It also gave an MIC ([1]; read-out: MIC to vancomycin + 100 μg/ml Aurograb, EMRSA strain 10, + 100 μg/ml Aurograb) of 0.03 µg/mL, an MIC ([1]; read-out: MIC to vancomycin + 100 μg/ml Aurograb, EMRSA strain 11, + 100 μg/ml Aurograb) of 0.03 µg/mL and an MIC ([1]; read-out: MIC to vancomycin + 100 μg/ml Aurograb, EMRSA strain 12, + 100 μg/ml Aurograb) of 0.03 µg/mL. The MIC ([1]; read-out: MIC to vancomycin + 100 μg/ml Aurograb, EMRSA strain 13, + 100 μg/ml Aurograb) was 0.03 µg/mL, the MIC ([1]; read-out: MIC to vancomycin + 100 μg/ml Aurograb, EMRSA strain 14, + 100 μg/ml Aurograb) was 0.03 µg/mL and the MIC ([1]; read-out: MIC to vancomycin + 100 μg/ml Aurograb, EMRSA strain 15, + 100 μg/ml Aurograb) was 0.03 µg/mL. It also gave an MIC ([1]; read-out: MIC to vancomycin + 100 μg/ml Aurograb, EMRSA strain 16, + 100 μg/ml Aurograb) of 0.03 µg/mL, an MIC ([1]; read-out: MIC to vancomycin, EMRSA strain 1) of 0.5 µg/mL and an MIC ([1]; read-out: MIC to vancomycin, EMRSA strain 2) of 0.5 µg/mL. For the same compound, the MIC ([1]; read-out: MIC to vancomycin, EMRSA strain 3) was 0.5 µg/mL, the MIC ([1]; read-out: MIC to vancomycin, EMRSA strain 4) was 0.5 µg/mL and the MIC ([1]; read-out: MIC to vancomycin, EMRSA strain 5) was 0.5 µg/mL. For the same compound, the MIC ([1]; read-out: MIC to vancomycin, EMRSA strain 6) was 0.5 µg/mL, the MIC ([1]; read-out: MIC to vancomycin, EMRSA strain 7) was 0.5 µg/mL and the MIC ([1]; read-out: MIC to vancomycin, EMRSA strain 8) was 0.5 µg/mL. It also gave an MIC ([1]; read-out: MIC to vancomycin, EMRSA strain 9) of 0.5 µg/mL, an MIC ([1]; read-out: MIC to vancomycin, EMRSA strain 10) of 0.5 µg/mL and an MIC ([1]; read-out: MIC to vancomycin, EMRSA strain 11) of 0.5 µg/mL. For the same compound, the MIC ([1]; read-out: MIC to vancomycin, EMRSA strain 12) was 0.5 µg/mL, the MIC ([1]; read-out: MIC to vancomycin, EMRSA strain 13) was 0.5 µg/mL and the MIC ([1]; read-out: MIC to vancomycin, EMRSA strain 14) was 0.25 µg/mL. For the same compound, the MIC ([1]; read-out: MIC to vancomycin, EMRSA strain 15) was 0.5 µg/mL, the MIC ([1]; read-out: MIC to vancomycin, EMRSA strain 16) was 0.5 µg/mL and the MIC ([2]; read-out: MIC to Vancomycin in the presence of Aurograb, Parent EMRSA-15, Aurograb 0 μg/ml) was 1 µg/mL. The MIC ([2]; read-out: MIC to Vancomycin in the presence of Aurograb, Parent EMRSA-15, Aurograb 80 μg/ml) was 0.25 µg/mL, the MIC ([2]; read-out: MIC to Vancomycin in the presence of Aurograb, Parent EMRSA-15, Aurograb 125 μg/ml) was < 0.125 µg/mL and the MIC ([2]; read-out: MIC to Vancomycin in the presence of Aurograb, VISA EMRSA-1, Aurograb 0 μg/ml) was 8 µg/mL. The MIC ([2]; read-out: MIC to Vancomycin in the presence of Aurograb, VISA EMRSA-1, Aurograb 60 μg/ml) was 4 µg/mL, the MIC ([2]; read-out: MIC to Vancomycin in the presence of Aurograb, VISA EMRSA-1, Aurograb 80 μg/ml) was 2 µg/mL and the MIC ([2]; read-out: MIC to Vancomycin in the presence of Aurograb, VISA EMRSA-1, Aurograb 125 μg/ml) was < 0.125 µg/mL. It also gave an MIC ([2]; read-out: MIC to Vancomycin in the presence of Aurograb, VISA EMRSA-2, Aurograb 0 μg/ml) of 4 µg/mL, an MIC ([2]; read-out: MIC to Vancomycin in the presence of Aurograb, VISA EMRSA-2, Aurograb 60 μg/ml) of 0.5 µg/mL and an MIC ([2]; read-out: MIC to Vancomycin in the presence of Aurograb, VISA EMRSA-2, Aurograb 80 μg/ml) of 1 µg/mL. For the same compound, the MIC ([2]; read-out: MIC to Vancomycin in the presence of Aurograb, VISA EMRSA-2, Aurograb 125 μg/ml) was < 0.125 µg/mL, the MIC ([2]; read-out: MIC to Vancomycin in the presence of Aurograb, VISA EMRSA-8, Aurograb 0 μg/ml) was 8 µg/mL and the MIC ([2]; read-out: MIC to Vancomycin in the presence of Aurograb, VISA EMRSA-8, Aurograb 60 μg/ml) was 2 µg/mL. For the same compound, the MIC ([2]; read-out: MIC to Vancomycin in the presence of Aurograb, VISA EMRSA-8, Aurograb 80 μg/ml) was 1 µg/mL, the MIC ([2]; read-out: MIC to Vancomycin in the presence of Aurograb, VISA EMRSA-8, Aurograb 125 μg/ml) was < 0.125 µg/mL and the MIC ([2]; read-out: MIC to Vancomycin in the presence of Aurograb, VISA EMRSA-11, Aurograb 0 μg/ml) was 4 µg/mL. The MIC ([2]; read-out: MIC to Vancomycin in the presence of Aurograb, VISA EMRSA-11, Aurograb 60 μg/ml) was 4 µg/mL, the MIC ([2]; read-out: MIC to Vancomycin in the presence of Aurograb, VISA EMRSA-11, Aurograb 80 μg/ml) was 1 µg/mL and the MIC ([2]; read-out: MIC to Vancomycin in the presence of Aurograb, VISA EMRSA-11, Aurograb 125 μg/ml) was < 0.125 µg/mL. It also gave an MIC ([2]; read-out: MIC to Vancomycin in the presence of Aurograb, VISA EMRSA-12, Aurograb 0 μg/ml) of 8 µg/mL, an MIC ([2]; read-out: MIC to Vancomycin in the presence of Aurograb, VISA EMRSA-12, Aurograb 60 μg/ml) of 4 µg/mL and an MIC ([2]; read-out: MIC to Vancomycin in the presence of Aurograb, VISA EMRSA-12, Aurograb 80 μg/ml) of 2 µg/mL. For the same compound, the MIC ([2]; read-out: MIC to Vancomycin in the presence of Aurograb, VISA EMRSA-12, Aurograb 125 μg/ml) was < 0.125 µg/mL, the MIC ([2]; read-out: MIC to Vancomycin in the presence of Aurograb, VISA EMRSA-15, Aurograb 0 μg/ml) was 8 µg/mL and the MIC ([2]; read-out: MIC to Vancomycin in the presence of Aurograb, VISA EMRSA-15, Aurograb 60 μg/ml) was 4 µg/mL. The MIC ([2]; read-out: MIC to Vancomycin in the presence of Aurograb, VISA EMRSA-15, Aurograb 80 μg/ml) was 2 µg/mL and the MIC ([2]; read-out: MIC to Vancomycin in the presence of Aurograb, VISA EMRSA-15, Aurograb 125 μg/ml) was < 0.125 µg/mL.
